Experimental data taken from US4513007A, “Method for treating heart disease” (priority 1983, dated 1985).

Experiments:
acute toxicity study = settings: in vivo, mice and rats
cardiac lymphatics [1] = experiment: post-mortem cardiac lymphangiography in normal dog hearts (first study); assay type: in vivo, mongrel dogs; settings: normal myocardium; for No of lymphatics per cm^2 / Equivalence to ventricular surface: 6 h after i.v., Hyaluronidase 500 I.U./kg, calcium dobesilate 50-100 mg/kg; for No of lymphatics per cm^2: controls 1.64 ± 0.11, P <0.001 in relation to control; for Equivalence to ventricular surface: controls 6.6%, P <0.001
Experimental: I. In a first study the effect of calcium dobesilate was compared to Hyaluronidase on the visualization of cardiac lymphatics in normal dog hearts (not infarcted). 18 healthy mongrel dogs of either gender were divided into 3 groups each of 6 animals. […] The dogs in the second group received an intravenous injection of Hyaluronidase (500 I.U./kg) and those of the third group received an i.v. injection of calcium dobesilate (50-100 mg/kg). Post-mortem cardiac lymphangiography was performed after killing the animals and extracting the hearts 6 hours after the administration of either product. The results of the 2 groups were compared to that of the controls. The technique of cardiac lymphangiography used was that described by Szlavy L., Adams D., Hollenberg N. K. and Abrams H., published in the American Heart Journal, Vol. 100, Nr. 3, pp 323-331, Sept. 1980 (8). The technique consisted in injecting a contrast agent (30 g barium sulphate+2-5 ml of Iodamid 420) into the superficial lymphatic vessels of the heart using a Becton-Dickinson lymphangiography set. The contrast agent was injected under gentle manual pressure until the lymphatic vessels in the left ventricle were filled (multiple injections starting from the apex to the base of the heart). The heart was then X-rayed with 5-fold magnification using a 0,1 mm focal spot X-raytube and with exposure factors of 50 KV, 0,01 second and 30 mA. With this technique it was possible to visualize the 40-80 microns lymphatic vessels. A grid was applied on the lymphangiograms which consisted of lines drawn at right angles, 1 cm apart. Each 5×5 cm^2 served as a single unit as it corresponded to 1 cm^2 of the left ventricular myocardium (5-fold magnification was used for filming). A point was counted whenever a crossing coincided with a visualized lymph vessel in the lymphangiogram. In this way a quantitative index was obtained based on the number of lymph vessels/cm^2 or to the percent of the left ventricular surface area.

cardiac lymphatics [2] = experiment: cardiac lymphangiography in normal dogs and dogs with LAD coronary artery ligation (second study); assay type: in vivo, mongrel dogs; settings: 100 mg/kg i.v.
Experimental: II. The second study was performed to evaluate the influence of calcium dobesilate on the visualization of the lymphatic vessels in the infarcted and non-infarcted zones after ligation of the left anterior descending (LAD) coronary artery in 37 mongrel dogs. In 6 dogs the coronary artery was not occluded (group I). […] Therefore a larger control series was not required. In 6 normal dogs CLS 2210 (calcium dobesilate) was administered in a single dose of 100 mg/kg by intravenous infusion in 100 ml of physiological saline or glucose. Six hours after administration of CLS 2210 (calcium dobesilate) the dogs were killed and cardiac lymphangiography was performed post-mortem (group I) as described above (8). In 7 dogs the coronary artery was occluded and lymphangiography was performed post-mortem 30 minutes after the occlusion (group II). In 6 other dogs the coronary artery was occluded and lymphangiography was performed 360 minutes after coronary artery occlusion (group III). An additional 12 dogs were treated with CLS 2210 (calcium dobesilate) in a single dose of 100 mg/kg by intravenous infusion immediately after coronary artery occlusion. In 6 of these dogs, post-mortem lymphangiography was performed 30 minutes following coronary artery occlusion (group II), and in the other 6 it was performed 360 minutes after occlusion (group III). The infarcted zone of myocardium was identified in vivo by direct inspection after coronary artery occlusion according to the usual indices, including color change and disordered contraction. […] Both the infarcted (LAD) and non-infarcted zones (the non-[…] zone was the region of the left circumflex coronary artery or LCC) were evaluated, the non-infarcted zone serving for comparison. Mean values were presented with the standard error of the mean as the index of dispersion. Statistical analysis was done, where appropriate, with the student t-test or by non-parametric methods in the form of the Wilcoxon ranks sum test or Fisher's s exact test. The null hyothesis was rejected when p was less than 0,05.

[3] = test system: dogs with experimental myocardial infarction; experiment: electrocardiographic tracings in dogs after coronary artery ligation (second study); assay type: in vivo, mongrel dogs; settings: group III treated dogs, 360 min, 100 mg/kg i.v.
Experimental: In 7 dogs the coronary artery was occluded and lymphangiography was performed post-mortem 30 minutes after the occlusion (group II). In 6 other dogs the coronary artery was occluded and lymphangiography was performed 360 minutes after coronary artery occlusion (group III). An additional 12 dogs were treated with CLS 2210 (calcium dobesilate) in a single dose of 100 mg/kg by intravenous infusion immediately after coronary artery occlusion. In 6 of these dogs, post-mortem lymphangiography was performed 30 minutes following coronary artery occlusion (group II), and in the other 6 it was performed 360 minutes after occlusion (group III).

[4] = test system: cardiac arrhythmia in dogs; experiment: cardiac arrhythmia in dogs induced by electrical stimulation (third study); assay type: in vivo, mongrel dogs; settings: 4 hours of stimulation (>180 beats/minute); 50-75 mg/kg i.v. bolus; untreated: tachyarrhythmia bursts, extrasystoles
Experimental: III. In a third study it was evaluated the effect of calcium dobesilate on cardiac arrhythmia in dogs induced by electrical stimulation, to produce EKG changes and cardiac lymphostasis similar to those observed in sick sinus syndrome in man (4,5). […] The other three dogs served as controls. EKG records were made 4 hours later in all animal.

[5] = test system: infarct size, left ventricle; assay type: in vivo, mongrel dogs
Experimental: IV. In a fourth study the influence of calcium dobesilate on infarct size was evaluated by the double-blind technique. The study was performed in 14 mongrel dogs of either gender weighing about 23-25 kg.
Anesthesia was induced and maintained with sodium pentobarbital (30 mg/kg) and ventilation was maintained through an endotracheal tube with a Harvard respirator providing 200-300 cc of room air/breath at a rate of 18-20/minute.
Coronary artery occlusion in all dogs was obtained by ligation of the LAD just distal to the first septal branch.
The left circumflex artery (LCC) was not ligated and its territory being non-infarcted was used as a control. After ligation of the LAD artery the chest was closed. Calcium dobesilate or the placebo were administered by intravenous perfusion during 7 days according to the following schedule:
0-1 hour after LAD ligation 100 mg/kg i.v. in 100 ml saline
2-3 hours after LAD ligation 100 mg/kg i.v. in 100 ml saline
4-6 hours after LAD ligation 75 mg/kg i.v. in 100 ml saline
7-12 hours after LAD ligation 50 mg/kg i.v. in 100 ml saline
13-24 hours after LAD ligation 50 mg/kg i.v. in 100 ml saline
2-5 days after LAD ligation 3 × 50 mg/kg i.v. in 50 ml saline
6-7 days after LAD ligation 3 × 25 mg/kg i.v. in 50 ml
After 7 days the animals were killed and the hearts were sliced in sections of 1 cm (from the apex to the base). The infarcted and non-infarcted zones of the left ventricle were planimetered to evaluate the infarct size in % in relation to the whole left ventricle. Then the infarcted and non infarcted zones were weighed to determine the size of the infarcted zone in grams in relation to the size of the whole left ventricle.

[6] = test system: patients with fresh myocardial infarction; assay type: in vivo, human (patients)
Experimental: V. A preliminary clinical study was conducted on 100 patients with fresh myocardial infarction who had to fulfill the following criteria for admission: typical history of chest pain, with onset of less than six hours duration and having anterior or anteroseptal transmural myocardial infarction evidenced by 12 leads EKG criteria. 50 patients received the usual conventional drugs advocated in the hospital where the study was undertaken (potent analgesic, nitroglycerin, diuretics, lidocain, digitalis) and served as a comparison or control group. The other 50 patients received the conventional drugs and in addition calcium dobesilate which was given as follows: 100 mg/kg of calcium dobesilate by i.v. perfusion in 300 ml glucose, on admission 50-100 mg/kg of calcium dobesilate by i.v. perfusion in 300 ml glucose every hour during the subsequent 3 hours 25 mg/kg of calcium dobesilate by i.v. perfusion in 300 ml glucose every 6 hours until the 3rd-4th day after admission The treatment was then continued, by giving 500-1,000 mg of calcium dobesilate orally thrice daily.

cardiac lymphatics [7] = experiment: cardiac lymphangiography in normal dogs and dogs with LAD coronary artery ligation (second study); assay type: in vivo, mongrel dogs; settings: intravenous infusion, dogs
rabbit ear = settings: Roskam's method; U.S. Pat. No. 3,509,207; cited from earlier work
microvessels = settings: cited from earlier work
[8] = test system: dogs with coronary occlusion; settings: cited from earlier work
[9] = test system: patients with acute anterior myocardial infarction; settings: intravenous; cited from earlier work
[10] = compared to controls (FIGS. 1-3)

## O=S(=O)(O)c1cc(O)ccc1O [calcium dobesilate, calcium 2,5-dihydroxybenzenesulfonate]
Acute toxicity study; intravenous
  LD50: 750 mg/kg
Acute toxicity study; oral
  LD50: > 4000 mg/kg
Cardiac lymphatics [1]
  number of visualized lymphatics/cm^2 and equivalent left ventricular surface, comparison with Hyaluronidase and control groups: much higher
  No of lymphatics per cm^2: 5.22 ± 0.34 per cm^2
  Equivalence to ventricular surface: 20.9%
Cardiac lymphatics [2]; group I, normal dogs without MI, 360 min, untreated 1,84 ± 0,18, p <0,001
  mean points count/cm^2, LCC zone (non infarcted): 5,22 ± 0,34 points/cm^2
Cardiac lymphatics [2]; group I, normal dogs without MI, 360 min, untreated 7,2%, listed as CLS 2210, 100 mg/kg
  ventricular surface occupied by lymphatics: 20.9%
Cardiac lymphatics [2]; group I, normal dogs without MI, 360 min, untreated 7,2%, listed as CLS (ca. dobesilate), 100 mg/kg
  ventricular surface occupied by lymphatics: 20,9%
Cardiac lymphatics [2]; group I, normal dogs without myocardial infarction, 360 min, untreated 1,81 ± 0,18, p <0,001
  mean points count/cm^2, LAD zone: 5,20 ± 0,34 points/cm^2
Cardiac lymphatics [2]; group I, normal dogs, 6 h, p<0,001 vs untreated normal myocardium
  point counts, normal myocardium: 5,22±0,34 points/cm^2
Cardiac lymphatics [2]; group II, dogs with MI, 30 min, untreated 3,1%
  ventricular surface occupied by lymphatics: 9,8%
Cardiac lymphatics [2]; group II, dogs with MI, 30 min after occlusion, untreated 0,78 ± 0,07, p <0,01, listed as CLS 2210, 100 mg/kg
  mean points count/cm^2, LAD zone (infarcted): 2,43±0,06 points/cm^2
Cardiac lymphatics [2]; group II, dogs with MI, 30 min after occlusion, untreated 0,78 ± 0,07, p <0,01, listed as CLS (ca. dobesilate), 100 mg/kg
  mean points count/cm^2, LAD zone (infarcted): 2,43 ± 0,06 points/cm^2
Cardiac lymphatics [2]; group II, dogs with MI, 30 min after occlusion, untreated 1,47 ± 0,07, listed as CLS 2210, 100 mg/kg
  mean points count/cm^2, LCC zone (non infarcted): 2,75±0,22 points/cm^2
Cardiac lymphatics [2]; group II, dogs with MI, 30 min after occlusion, untreated 1,47 ± 0,07, listed as CLS (ca. dobesilate), 100 mg/kg
  mean points count/cm^2, LCC zone (non infarcted): 2,75 ± 0,22 points/cm^2
Cardiac lymphatics [2]; group III, dogs with MI, 360 min, untreated 3,2%
  ventricular surface occupied by lymphatics: 24,8%
Cardiac lymphatics [2]; group III, dogs with MI, 360 min after occlusion, untreated 0,80 ± 0,08, p <0,001, listed as CLS 2210
  mean points count/cm^2, LAD zone (infarcted): 6,15±0,18 points/cm^2
Cardiac lymphatics [2]; group III, dogs with MI, 360 min after occlusion, untreated 0,80 ± 0,08, p <0,001, listed as CLS (ca. dobesilate)
  mean points count/cm^2, LAD zone (infarcted): 6,15 ± 0,18 points/cm^2
Cardiac lymphatics [2]; group III, dogs with MI, 360 min after occlusion, untreated 2,57 ± 0,05, listed as CLS 2210, 100 mg/kg
  mean points count/cm^2, LCC zone (non infarcted): 2,45±0,13 points/cm^2
Cardiac lymphatics [2]; group III, dogs with MI, 360 min after occlusion, untreated 2,57 ± 0,05, listed as CLS (ca. dobesilate), 100 mg/kg
  mean points count/cm^2, LCC zone (non infarcted): 2,45 ± 0,13 points/cm^2
[3]
  ST-segment elevation: a fall in the ST-segment elevation
[4]
  EKG tracings after rapid electrical stimulation: practically normal EKG tracings
[5]; dog, in vivo
  drug's tolerance during the experimental period: perfect
[5]; dog, in vivo, iv
  side-effects attributable to the drug: No side-effects
[5]; mean of 8 dogs, i.v. perfusion 7 days, placebo mean 54,1%
  infarct size % of whole area of left ventricle, planimetry, MEAN: 26,2%
[5]; mean of 8 dogs, i.v. perfusion 7 days, placebo mean 54,4%
  infarct size % of left ventricle, weight, MEAN: 27,9%
[5]; planimetry and weight analysis, p<0,001
  reduction in infarct size compared to placebo: 50 % less
[6]; EKG tracings, compared to controls
  precordial ST-segment elevation: rapid and much greater decrease
[6]; compared to control group, i.v. then oral, added to conventional drugs
  consumption of conventional drugs (analgesic, nitroglycerin, diuretic, lidocain and digitalis): considerably reduced
[6]; compared to controls
  chest pain: much less
[6]; [10]
  serum levels of CPK: significant reduction
  serum levels of LDH: significant reduction
  serum levels of SGOT: significant reduction
[6]; controls 15%
  short-term mortality: 2%
[6]; controls average 7 days
  mobilisation of patients (average): 4 days
[6]; human, in vivo
  side-effects: no side-effects
  tolerability: well tolerated
Cardiac lymphatics [7]
  most effective infused dose: 100 mg per kg body weight
Rabbit ear
  mean bleeding time of the rabbit ear: reduce
microvessels
  anti-oedema effect: anti-oedema
  capillary fragility and permeability: reducing
  viscosity lowering effect: viscosity lowering effect

## Hyaluronidase
Cardiac lymphatics [1]
  No of lymphatics per cm^2: 3.45 ± 0.18 per cm^2
  Equivalence to ventricular surface: 13.8%
[8]
  ST segment elevation: reduction
  infarct size (histological planimetric measurements): decrease
  myocardial CK (creatinine-Kinase): diminution
  number of lymphatic vessels in the area of infarction: increase
[9]
  EKG signs of necrosis: attenuate
